Results on two compounds are retold here after article PMC9124820, “In vitro evaluation of fenfluramine and norfenfluramine as victims of drug interactions” (Pharmacology Research & Perspectives, 2022).

One data set has as its target T1, OAT3 (Homo sapiens, UniProt Q8TCC7).
T1 construct: host or cells: HEK293
T1 sequence (Q8TCC7 1-542): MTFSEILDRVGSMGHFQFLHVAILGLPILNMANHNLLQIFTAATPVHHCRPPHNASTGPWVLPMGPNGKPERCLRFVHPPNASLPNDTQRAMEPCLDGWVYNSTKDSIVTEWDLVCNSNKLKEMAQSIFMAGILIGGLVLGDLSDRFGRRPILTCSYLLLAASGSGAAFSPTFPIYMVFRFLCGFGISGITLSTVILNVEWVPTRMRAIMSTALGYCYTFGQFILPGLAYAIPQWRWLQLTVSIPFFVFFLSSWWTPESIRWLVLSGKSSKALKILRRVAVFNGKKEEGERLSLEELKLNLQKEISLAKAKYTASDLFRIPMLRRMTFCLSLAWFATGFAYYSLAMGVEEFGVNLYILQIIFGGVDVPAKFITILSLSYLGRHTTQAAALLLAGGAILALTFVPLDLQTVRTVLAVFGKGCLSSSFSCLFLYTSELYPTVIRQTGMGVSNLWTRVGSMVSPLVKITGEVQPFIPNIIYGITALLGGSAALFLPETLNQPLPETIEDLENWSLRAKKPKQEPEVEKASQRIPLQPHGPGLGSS
Description: Transporter substrate determination, uptake in HEK293-OAT3 cells. The class given is in vitro ADME. The note with it: for Maximum Ratio (uptake in transporter‐expressing cells to empty‐vector control cells): HEK293‐OAT3, 0.1, 1, 10 µM, threshold ≥2‐fold; for substrate of the transporter: OAT3. Here is the method: (§1) LC‐MS/MS analyses to assess metabolic stability and identify the transporter substrate were performed using an API 4000 QTRAP mass spectrometer (SCIEX, Framingham, MA) with electrospray ionization in positive mode. Chromatography was performed using an Atlantis dC18 analytical column (100 × 2.1 mm, 5 µm; Waters Corporation, Milford, MA). Mobile phases were 0.2% v/v formic acid in water and 0.2% v/v formic acid in acetonitrile. For metabolic stability experiments, FFA and metabolites were eluted at a flow rate of 0.6 mL/min, with a linear gradient of 20%−80% acetonitrile from 0.30−2.0 min. For transporter substrate experiments, the gradient was slightly modified to achieve suitable chromatography. The mass transitions monitored were 232.0 > 159.0 for FFA and 348.0 > 330.0 for 1ʹ‐OH‐midazolam‐d4 internal standard.
(§2) FFA and nFFA were evaluated as substrates of the transporters breast cancer resistance protein (BCRP), organic anion transporter (OAT)1, OAT3, organic cation transporter (OCT)2, MATE1, MATE2‐K, and P‐glycoprotein multidrug transporter (P‐gp; also known as MDR1 and ABCB1), according to published methods.[25], [26], [27], [28], [29] Madin‐Darby canine kidney (MDCKII)‐BCRP cells (Netherlands Cancer Institute, Amsterdam, Netherlands) or human embryonic kidney (HEK)293 cells transfected with other transporters (Sekisui Medical Co., Ltd., Tokyo, Japan) were used. Transporter‐transfected and control cells were incubated with FFA or nFFA (0.1, 1, or 10 μM), and the amount of FFA and nFFA accumulated in the cells was measured by LC‐MS/MS as described above. The accumulation of positive control substrates in the presence and absence of an inhibitor served as a positive control for transporter function. […] BCRP substrate determination was made by bi‐directional permeability across MDCKII‐BCRP and control cells cultured on 24‐well transwell plates. Incubation medium containing probe substrate was added. Ten minutes later, transepithelial electrical resistance (TEER) was recorded and cells were preincubated at 37 ± 2°C for 30−60 min before FFA or nFFA or positive control substrate with the solvent control or positive control inhibitor was added to the donor (apical) chamber. […] Samples containing FFA, nFFA, or probe substrate were mixed with internal standard and analyzed by LC‐MS/MS. […] An aliquot was added to 96‐well plate containing scintillation fluid that was analyzed by a MicroBeta^2 scintillation counter (Perkin Elmer, Waltham, MA). Protein concentration was determined by a bicinchoninic acid (BCA) protein assay according to the manufacturer’s protocol (Thermo Fisher Scientific, Waltham, MA). Non‐radiolabeled compounds were resuspended in a 50:50 v/v methanol:water solution containing internal standard and were analyzed by LC‐MS/MS. […]

The target in the next data set is T2, BCRP (Homo sapiens, UniProt Q9UNQ0).
T2 sequence (Q9UNQ0 1-655): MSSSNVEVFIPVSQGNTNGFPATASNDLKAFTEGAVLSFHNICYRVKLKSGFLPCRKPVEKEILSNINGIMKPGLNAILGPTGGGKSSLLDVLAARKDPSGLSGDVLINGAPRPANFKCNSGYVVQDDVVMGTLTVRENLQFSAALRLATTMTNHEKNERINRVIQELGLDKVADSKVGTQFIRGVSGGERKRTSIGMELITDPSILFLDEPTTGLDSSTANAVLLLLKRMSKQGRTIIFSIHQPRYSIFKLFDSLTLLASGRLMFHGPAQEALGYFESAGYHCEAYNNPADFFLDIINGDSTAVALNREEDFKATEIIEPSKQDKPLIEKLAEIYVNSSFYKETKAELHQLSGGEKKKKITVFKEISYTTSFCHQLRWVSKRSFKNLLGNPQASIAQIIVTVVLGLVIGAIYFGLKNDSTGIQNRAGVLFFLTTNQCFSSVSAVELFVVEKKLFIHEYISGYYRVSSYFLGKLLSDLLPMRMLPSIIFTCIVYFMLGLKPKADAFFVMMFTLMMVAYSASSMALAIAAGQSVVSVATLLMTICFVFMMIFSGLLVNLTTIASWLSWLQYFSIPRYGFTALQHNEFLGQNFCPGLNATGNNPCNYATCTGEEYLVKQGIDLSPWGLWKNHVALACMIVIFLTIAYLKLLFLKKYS
Description: Transporter substrate determination, bi-directional permeability in MDCKII-BCRP cells. The class given is in vitro ADME. Also noted: host or cells: MDCKII. The note with it: for substrate of the transporter: BCRP; for Maximum Ratio (net flux in transporter‐expressing cells to control cells): MDCKII‐BCRP, 0.1, 1, 10 µM, threshold ≥2‐fold suggests substrate. Here is the method:
as §1, §2

For data set [1] the following is noted: clobazam, and valproate, healthy subjects, cited from earlier work.

`CCNC(C)Cc1cccc(C(F)(F)F)c1` (racemic) [FFA, (RS)‐ethyl (α‐methyl‐3‐trifluoromethylphenethyl)amine]: on OAT3, the “Maximum Ratio (uptake in transporter‐expressing cells to empty‐vector control cells)” value is 1.15 and the “substrate of the transporter” value is “not substrates”. On BCRP, the “substrate of the transporter” value is given as “not substrates” and the “Maximum Ratio (net flux in transporter‐expressing cells to control cells)” value was found to be 1.51. The “effect on Cmax, AUC0‐t, and AUC0‐∞ of FFA” value in data set [1] (co‐administered with stiripentol) is listed as “increasing”.
With `CC(N)Cc1cccc(C(F)(F)F)c1.Cl` (stereo not shown) [nFFA, 1‐(3‐(trifluoromethyl)phenyl)propan‐2‐amine hydrochloride], at OAT3, the “Maximum Ratio (uptake in transporter‐expressing cells to empty‐vector control cells)” value is 1.74 and the “substrate of the transporter” value is recorded as “not substrates”. On BCRP, the “substrate of the transporter” value was “not substrates” and the “Maximum Ratio (net flux in transporter‐expressing cells to control cells)” value was found to be 1.42. Moreover, the “effect on Cmax and AUC0‐t of nFFA” value in data set [1] (FFA co‐administered with stiripentol) is “reduced”.
